The structures appear in SMILES notation. pIC50: −log10 of the molar value. Where two headings read alike, the source gives them in different places.

The source of these data is patent publication EP0334967B1, “KERATOSIS-TREATING AGENT” (priority 1987, dated 1989).

In one data set the target is cyclooxygenase. In words: Cyclooxygenase-inhibiting action (PGE2 formation, rabbit kidney marrow microsome fraction). It is filed as biochemical. The conditions noted are these: cyclooxygenase from rabbit kidney marrow microsomes, [1-14C] arachidonic acid, 37°C 15 minutes; tested at 40, 20, 10 or 5 µM. As to the method:
To 7.0 g of rabbit kidney marrow was added 60 ml of a 0.1M phosphate buffer solution (pH 7.5) containing 1 mM glutathione, and the mixture was homogenized by using a polytrone. The homogenate was subjected to the centrifugal separation under. 105,000 x G for 60 minutes to obtain a microsome fraction, and the fraction was dissolved in 7 ml of a 0.1M phosphate buffer solution (pH 7.5) containing 1 mM glutathione to obtain a standard enzyme of cyclooxygenase.
To 15 µl of the obtained standard enzyme were added 4 mM glutathione, 10 mM tryptophan, 0.25 µM hemoglobin, and a phosphate buffer solution (pH 7.5), each concentration being the final concentration, and [1-¹⁴C] arachidonic acid (5 x 10⁴ dpm) and cis-(6)-shogaol were added to a final concentration of 40, 20, 10 or 5 µM and a total volume of 200 µl. Incubation was carried out at 37 °C for 15 minutes, and 1N hydrochloric acid was added to stop the reaction. Prostaglandin E₂ (PGE₂) was added as the carrier and the reaction product was extracted with 2 ml of ether. […] Coloration was effected with an iodine vapor, the portion corresponding of […] was scratched out, and the radioactivity of PGE₂ was measured by a liquid scintillation counter. The inhibition ratio at each concentration was calculated according to the following formula, and the 1C₅₀ was determined. […]

In data set [1] the test system is male mice of the ICR line. The experiment in a line: Acute toxicity test. To be noted: mouse, in vivo, po, 500 mg/kg. The protocol:
(§1) The acute toxicity test of cis-(6)-shogaol was carried out by using male mice of the ICR line.

A further data set relates to balb/c 3T3 cells. The experiment in a line: Inhibitory action to EGF stimulated cell growth (3H-thymidine incorporation). The format is cell-based. To be noted: 16 hours + 8 hours 3H-thymidine. As to the method: A culture medium (hereinafter referred to as "CS DMEM") containing 10% of calf serum, which was prepared so that 2.5 x 10⁴ of fibroblasts (balb/c 3T3 cells) were contained in 0.5 ml, was added in a 24-well plate in an amount of 0.5 ml per well. After the fibroblasts were confluent in the state of a single layer, the culture medium was replaced with the same amount of 1% CS DMEM and the cells were incubated at 37°C for 12 hours in a humidified atmosphere of 95% air-5% CO₂. Then, 1 µg/25 µl/well of trans-(6)-shogaol and 5 ng/25 µl/well of EGF (supplied by Collaborative Research, Inc.) were added, and the cells were further incubated for 16 hours. Then, 0.5 µCi(1.85+10⁻¹⁶S⁻¹)/50 µl of ³H-thymidine was added and the cells were further incubated 8 hours. The culture medium was removed, and the cells were washed with a cold phosphate buffered saline. […] The radioactivity of ³H-thymidine included in the cells by this growth was measured, and the action of trans-(6)-shogaol to the growth of the cells was examined.
10% CS DMEM prepared so that 2.5 x 10⁴ of fibroblasts (balb/c 3T3 cells) were contained in 0.5 ml were added in a 24-well plate in an amount of 0.5 ml/well. […] The radioactivity of ³H-thymidine included in the cells by this growth was measured, and the function of cis-(6)-shogaol to the growth of the cells was examined.

In another data set the target is T1, 5-lipoxygenase (Rattus norvegicus, UniProt P12527).
T1 construct: The supernatant was used as the standard enzyme of 5-lipoxygenase; endogenous in cells; host or cells: RBL-1 cultured cells, sonicated; 105,000 x G supernatant
T1 sequence (P12527 1-673): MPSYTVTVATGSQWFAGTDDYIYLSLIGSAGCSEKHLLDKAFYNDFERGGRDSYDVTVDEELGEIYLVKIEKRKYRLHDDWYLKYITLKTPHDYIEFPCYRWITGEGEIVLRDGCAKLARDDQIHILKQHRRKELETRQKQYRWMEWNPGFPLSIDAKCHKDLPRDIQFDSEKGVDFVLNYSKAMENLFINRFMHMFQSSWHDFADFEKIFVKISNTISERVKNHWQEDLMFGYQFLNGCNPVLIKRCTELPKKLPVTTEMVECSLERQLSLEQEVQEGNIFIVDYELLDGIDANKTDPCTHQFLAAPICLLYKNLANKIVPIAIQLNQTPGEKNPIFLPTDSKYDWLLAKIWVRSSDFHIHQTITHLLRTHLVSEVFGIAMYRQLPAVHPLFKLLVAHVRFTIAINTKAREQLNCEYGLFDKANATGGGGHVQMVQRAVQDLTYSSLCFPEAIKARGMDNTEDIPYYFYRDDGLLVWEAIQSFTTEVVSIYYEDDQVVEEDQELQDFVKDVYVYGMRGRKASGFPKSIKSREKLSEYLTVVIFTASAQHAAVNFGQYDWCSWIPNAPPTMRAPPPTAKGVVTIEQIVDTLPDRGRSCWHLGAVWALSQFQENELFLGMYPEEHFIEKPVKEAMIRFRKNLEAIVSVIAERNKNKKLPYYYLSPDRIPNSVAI
In words: 5-Lipoxygenase-inhibiting action (5-HETE formation, enzyme from RBL-1 cultured cells). The format is biochemical. The conditions noted are these: 5-lipoxygenase from RBL-1 cells, 10 µM arachidonic acid, 37°C 10 minutes; tested at 5, 1 or 0.5 µM. As to the method:
RBL-1 cultured cells were suspended in a 50 mM phosphate buffer solution (pH 7.4) containing 1 mM EDTA and 10% ethylene glycol so that the cell concentration was 5 x 10⁶ per ml, and the cell suspension was subjected to an ultrasonic wave treatment. Then, centrifugal separation was carried out under 10,000 x G for 10 minutes and then under 105,000 x G for 60 minutes. The supernatant was used as the standard enzyme of 5-lipoxygenase.
A test tube was charged with a 50 mM phosphate buffer solution, 1.5 mM calcium chloride, 20 µM indomethacin, 18 mM glutathione, 6 mM ATP, 10 µM arachidonic acid, the obtained standard enzyme, and an ethanol solution of cis-(6)-shogaol, to a total volume of 0.6 ml and a final concentration of 5, 1 or 0.5 µM, and a reaction was carried out at 37°C for 10 minutes. […] The amount of 5-HETE in the liquid measured by the high-speed liquid chromatography [column = TSK-gel ODS-80TM (supplied by Toso), moving phase = acetonitrile/water/ acetic acid (60/40/0.02), flow rate = 1 ml/min, detection = ultraviolet ray (235 nm)], and the obtained value was designated as the enzyme activity. The inhibition ratio at each concentration was calculated by the following formula, and the concentration giving an inhibition ratio of 50% (hereinafter referred to as "IC₅₀") was determined. […]

The next data set can be described thus: Acute toxicity test. Further details: species or system mice. To be noted: mouse, in vivo. As to the method: as §1

Take `CCCCC/C=C\C(=O)CCc1ccc(O)c(OC)c1` [cis-(6)-shogaol]: the pIC50 (usually the negative decadic logarithm of the IC50, by convention in mol/L) on cyclooxygenase is 4.93; at 5-lipoxygenase it was 6.08. Further, the mortality result in data set [1] is given as “none of the mice died”. Moreover, the “growth inhibited, balb/c 3T3 cells the growth of which was promoted by EGF” value in the data set on balb/c 3T3 cells (Experiment 4: 0.5 µg/12.5 µl/well compound, 50 pg/25 µl/well mouse EGF) came out at 63.9%.

`CCCCC/C=C/C(=O)CCc1ccc(O)c(OC)c1` [trans-(6)-shogaol, 1(4-hydroxy-3-methoxyphenyl)-(E)-4-decen-3-one]: the LD50 – broadly, the dose expected to kill half of the subjects tested – in “Acute toxicity test” (iv) turned out to be 50.9 mg/kg; in “Acute toxicity test” (oral administration, Litchfield-Wilcoxon method, male ICR mice, read-out: LD50), 687 mg/kg. For the same compound, the “growth inhibited, balb/c 3T3 cells the growth of which was promoted by EGF” value with balb/c 3T3 cells (Experiment 1: 1 µg/25 µl/well compound, 5 ng/25 µl/well EGF) is given as 52.7%.
